# Source: US5047242A, “Azadirachtin derivative insecticides” (Native Plant Institute ("NPI"), priority 1987, dated 1991)
# Columns and labels:
# [1] = test system: insects; details: literature; cited from earlier work
# [2] = test system: insect; details: Kubo & Klocke; cited from earlier work
# [3] = test system: Heliothis virescens; test: Oral injection of fifth-instar larvae, pupal and adult development (non-irradiated compounds); format: in vivo
# Procedure: (§1) Individual larvae were injected per os on the first day of the fifth instar with 1.0 μg of either irradiated or non-irradiated compounds dissolved in 1.0 μl of 75% aqueous ethanol.
# Table 2: Successful and unsuccessful pupal and adult development of
# fifthinstar Heliothis Virescens larvae injected orally with 1.0 microgram
# of either azadirachtin, 3deacetylazadirachtin, 22,23dihydroazadirachtin,
# or 2',3',22,23tetrahydroazadirachtin.
# [4] = test system: Heliothis virescens; test: Relative activity of UV-irradiated compounds in inhibiting adult development of fifth-instar larvae; format: in vivo; details: for Relative activity, inhibition of adult development: relative to non-irradiated counterpart
# Procedure: (§2) Azadirachtin, 3-deacetylazadirachtin, 22,23-dihydroazadirachtin, and 2',3',22,23-tetrahydroazadirachtin (1.0 mg/ml absolute ethanol) were placed individually in capped quartz NMR tubes (5×180 mm) and were irradiated with two UV germicidal lights (GE, G30T8, 200-280 nm, 30W) 1.8 m from the source at room temperature for up to 400 h. The controls were identical samples protected from exposure to UV radiation by wrapping with aluminum foil. At selected time intervals, aliquots from both the controls (non-irradiated) and irradiated samples were removed for high-performance liquid chromatography (HPLC) analysis and bioassay (vide infra).
# as §1
# Table 4: Relative activity of azadirachtin, 3deacetylaza-dirachtin,
# 22,23dihydroazadirachtin, 2',3',22,23tetrahydroaza-dirachtin, all of whic
# had been exposed for 15, 30, 90, 200, and 400 hours to UV radiation, in
# inhibiting the adult development of fifthinstar Heliothis virescens
# (§3) larvae. Relative activity is defined as the percentage of larvae injected
# relative to the percentage injected with its nonirradiated counterpart
# [5] = UV stability in ethanol by reversed phase HPLC; format: physicochemical
# Procedure: Stability of Azadirachtin derivatives was determined as follows:
# as §2
# Analytical reversed phase HPLC was performed on a phenyl (5μm) column run isocratically with acetonitrile-water (3:7) (Yamasaki et al.) Peaks were detected at 214 nm. The irradiated samples were compared with their corresponding non-UV-irradiated controls by measuring the height of the peak eluting at the appropriate Rt for each irradiated compound relative to each one's non-irradiated control. Results are expressed as the percent of the initial sample concentration remaining relative to the control. Each time point was done in at least triplicate fashion.
# [6] = test system: Heliothis virescens; test: Artificial diet feeding bioassay, mortality and growth inhibition in first-instar larvae; format: in vivo, Heliothis virescens (tobacco budworm); details: Table 1; first-instar Heliothis virescens larvae, artificial diet; parentheses = 95% confidence limits
# Source text: The results of the growth inhibitory and lethal activities of azadirachtin and these 8 derivatives when fed in an artificial diet to Heliothis virescens larvae are shown in Table 1. Similar to the results of Morgan, E. D., in "Natural pesticides from the Neem tree (Azadirachta indica A. Juss), Schmutterer, H., et al., Eds., Proc. First International Neem Conference (Rottach-Egern, 1980), German Agency for Technical Corporation,Eschborn, Germany, 1982, pps. 43-52 (hereinafter "Morgan"), neither deacetylation nor hydrogenation of the carbon-carbon double bond of the dihydrofuran ring moiety of azadirachtin had any significant effect on activity of the compound against H. virescens.
# Mortality and growth inhibition in first-instar Heliothis
# virescens larvae fed azadirachtin and eight derivatives in an
# artificial diet (I. Kubo and J. A. Klocke, In: Plant Resistance to
# Insects (P. A. Helin, Ed.), ACS Symposium Series 208, American Chemical
# Society, Washington, D.C. (1983), pp. 329-346.).^a
# ^b LC50 values are the concentrations (ppm) causing 50%
# ^c EC50 values are the concentrations (ppm) causing 50% growth
# ^d Numbers in parentheses are the 95% confidence limits determined
# using the methods of Litchfield and Wilcoxon, J. Pharmacol. Exp. Ther.
# An artificial diet feeding bioassay with neonate larvae of tobacco budworm (Heliothis virescens) and fall armyworm (Spodoptera frugiperda) was used as previously described (Kubo and Klocke, 1983) to detect insecticidal activities in the plant extracts to monitor fractionation, and to determine the potency of the isolated constituents and derivatives. Potency was determined either as the effective concentration (EC50) of added material that is necessary to reduce larval growth to 50% of the control values or as the lethal concentration (LC50) of added material that is necessary to kill 50% of the treated larvae. EC50 and LC50 values were determined from log probit paper and analyzed statistically by the method of Litchfield and Wilcoxon, supra.
# [7] = test system: Heliothis virescens; test: Relative activity of UV-irradiated compounds in inhibiting pupal development of fifth-instar larvae; format: in vivo; details: for Relative activity, inhibition of pupal development: relative to non-irradiated counterpart
# Procedure: as §2, §1
# Table 3: Relative activity of azadirachtin, 3deacetylaza-dirachtin,
# 22,23dihydroazadirachtin, and 2',3',22,23tetrahydroazadirachtin, all of
# which had been exposed for 15, 30, 90, 200, and 400 hours to UV radiation
# inhibiting the pupal development of fifthinstar Heliothis virescens
# as §3
# [8] = 1.0 microgram injected orally, fifth-instar, non-irradiated
# [9] = 1.0 microgram injected orally, % of larvae
smiles,measurement,setting,value
C/C=C(\C)C(=O)O[C@@H]1C[C@H](O)[C@]23CO[C@H](C(=O)OC)[C@H]2[C@](C)([C@]24O[C@@]2(C)[C@H]2C[C@@H]4O[C@@H]4OC=C[C@@]42O)[C@H](O)[C@@H]2OC[C@@]1(C(=O)OC)[C@H]23 [deacetylazadirachtinol],ecdysis inhibitory activity (in words),[1],same ecdysis inhibitory activity
same,"insect growth inhibitor activity, fold less active than azadirachtin",[2],about 2.5 fold
"C/C=C(\C)C(=O)OC1CC(OC(C)=O)C2(C(=O)OC)COC3C2C12COC(O)(C(=O)OC)C2C(C)(C12OC1(C)C1CC2OC2OCCC21O)C3O (stereo not drawn) [22,23-dihydroazadirachtin]",Number Adults,[3]; [8],6 Number
same,Number Adults Deformed,[3]; [8],5 Number
same,Number Pupae,[3]; [8],47 Number
same,Unsuccessful Larvae-Pupae (number),[3]; [8],13 Number
same,Unsuccessful Pupae-Adult (number),[3]; [8],4 Number
same,Adults (%),[3]; [9],3.4%
same,Adults Deformed (%),[3]; [9],2.8%
same,Pupae (%),[3]; [9],26.7%
same,Unsuccessful Larvae-Pupae (%),[3]; [9],7.4%
same,Unsuccessful Pupae-Adult (%),[3]; [9],2.3%
same,inhibition of pupation (in words),"[3]; non-irradiated, 1.0 μg per os",less effective
same,"Relative activity, inhibition of adult development",[4]; 15 h UV exposure,103.5%
same,"Relative activity, inhibition of adult development",[4]; 30 h UV exposure,100.1%
same,"Relative activity, inhibition of adult development",[4]; 90 h UV exposure,103.5%
same,ability to inhibit larvae from reaching the adult stage after UV (in words),[4]; 200 h UV,more so
same,"Relative activity, inhibition of adult development",[4]; 200 h UV exposure,69.0%
same,"Relative activity, inhibition of adult development",[4]; 400 h UV exposure,74.5%
same,degradation following 400 h of exposure to UV radiation (in words),[5],none of the three compounds remained in their original state
same,kinetics of UV degradation (in words),[5],first-order reaction
same,UV lability (in words),"[5]; UV irradiation, HPLC",UV-labile
same,EC50 (concentration causing 50% growth inhibition),[6],0.08 (0.04-0.15) ppm
same,"Relative activity, inhibition of pupal development",[7]; 15 h UV exposure,113.1%
same,"Relative activity, inhibition of pupal development",[7]; 30 h UV exposure,104.6%
same,activity retained after 90 h of exposure to UV radiation (in words),[7]; 90 h UV,retained full activity
same,"Relative activity, inhibition of pupal development",[7]; 90 h UV exposure,100.0%
same,ability to inhibit pupation after UV (in words),[7]; 200 h UV,did decline
same,"Relative activity, inhibition of pupal development",[7]; 200 h UV exposure,72.7%
same,ability to inhibit pupation after UV (in words),[7]; 400 h UV,even greater decline
same,activity retained after 400 h of exposure to UV radiation,[7]; 400 h UV,approximately 50%
same,"Relative activity, inhibition of pupal development",[7]; 400 h UV exposure,49.1%
same,ability to inhibit pupation after UV (in words),[7]; up to 90 h UV,not appreciably reduced
